Experimental data: PMC6358863, “Involvement of the Hydroperoxy Group in the Irreversible Inhibition of Leukocyte-Type 12-Lipoxygenase by Monoterpene Glycosides Contained in the Qing Shan Lu Shui Tea” (Molecules, 2019)

How the values were obtained:
cyclooxygenase-2 = target: T1, cyclooxygenase-2 (Homo sapiens, UniProt P35354); assay: cyclooxygenase-2 inhibition assay; assay type: biochemical; details: 25 μM linoleic acid, 24 °C, 5 min
T1 sequence (P35354 18-604): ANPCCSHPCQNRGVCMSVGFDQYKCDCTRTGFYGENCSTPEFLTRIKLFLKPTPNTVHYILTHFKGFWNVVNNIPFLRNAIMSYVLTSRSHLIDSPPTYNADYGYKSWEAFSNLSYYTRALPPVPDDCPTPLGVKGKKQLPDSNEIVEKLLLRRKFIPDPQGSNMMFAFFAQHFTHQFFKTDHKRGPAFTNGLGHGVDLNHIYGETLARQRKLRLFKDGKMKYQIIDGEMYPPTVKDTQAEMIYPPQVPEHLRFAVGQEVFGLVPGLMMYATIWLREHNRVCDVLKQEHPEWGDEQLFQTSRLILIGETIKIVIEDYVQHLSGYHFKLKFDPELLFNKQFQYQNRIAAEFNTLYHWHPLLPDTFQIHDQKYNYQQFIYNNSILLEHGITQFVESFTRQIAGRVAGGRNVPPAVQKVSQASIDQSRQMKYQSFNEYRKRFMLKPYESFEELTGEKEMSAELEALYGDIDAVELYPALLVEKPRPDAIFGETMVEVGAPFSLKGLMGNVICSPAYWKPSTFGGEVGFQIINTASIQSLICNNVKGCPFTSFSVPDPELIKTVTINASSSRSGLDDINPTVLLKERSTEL
Description: (§1) Figure 6 Inhibition of various lipoxygenase and cyclooxygenase activities by liguroside A. Reactions were carried out under the standard conditions in the presence of liguroside A at various concentrations and the products were quantified, using a reverse-phase HPLC. Relative enzyme activities of the 15-lipoxygenase-1 (closed circles), platelet-type 12-lipoxygenase (open circles), 5-lipoxygenase (open lozenges), cyclooxygenase-1 (open triangles), and cyclooxygenase-2 (closed triangles), as compared to the activity without inhibitors, are shown.
(§2) The lipoxygenase and cyclooxygenase reactions were carried out, as described previously. […] The products extracted with ice-cold diethyl ether were analyzed by a reverse-phase HPLC, using a Waters Alliance system equipped with a COSMOSIL 5C18-MS-II column (5-μm particle, 250 × 4.6 mm i.d., Nacalai), with a solvent system of methanol-water-acetic acid (80:20:0.01, v/v), at a flow rate of 1 mL/min, as previously described. Absorption at 235 nm was continuously monitored, using a Waters 2489 UV/Visible detector (Waters, Milford, MA, USA). Protein concentration was determined using a bicinchoninic acid protein assay kit (Thermo Fisher Scientific, Waltham, MA, USA), with bovine serum albumin as a standard.

[1] = target: T2, platelet-type 12-lipoxygenase (Homo sapiens, UniProt P18054); assay: platelet-type 12-lipoxygenase inhibition assay; assay type: biochemical; details: up to 100 μM; 30 min at 37 °C
T2 sequence (P18054 1-663): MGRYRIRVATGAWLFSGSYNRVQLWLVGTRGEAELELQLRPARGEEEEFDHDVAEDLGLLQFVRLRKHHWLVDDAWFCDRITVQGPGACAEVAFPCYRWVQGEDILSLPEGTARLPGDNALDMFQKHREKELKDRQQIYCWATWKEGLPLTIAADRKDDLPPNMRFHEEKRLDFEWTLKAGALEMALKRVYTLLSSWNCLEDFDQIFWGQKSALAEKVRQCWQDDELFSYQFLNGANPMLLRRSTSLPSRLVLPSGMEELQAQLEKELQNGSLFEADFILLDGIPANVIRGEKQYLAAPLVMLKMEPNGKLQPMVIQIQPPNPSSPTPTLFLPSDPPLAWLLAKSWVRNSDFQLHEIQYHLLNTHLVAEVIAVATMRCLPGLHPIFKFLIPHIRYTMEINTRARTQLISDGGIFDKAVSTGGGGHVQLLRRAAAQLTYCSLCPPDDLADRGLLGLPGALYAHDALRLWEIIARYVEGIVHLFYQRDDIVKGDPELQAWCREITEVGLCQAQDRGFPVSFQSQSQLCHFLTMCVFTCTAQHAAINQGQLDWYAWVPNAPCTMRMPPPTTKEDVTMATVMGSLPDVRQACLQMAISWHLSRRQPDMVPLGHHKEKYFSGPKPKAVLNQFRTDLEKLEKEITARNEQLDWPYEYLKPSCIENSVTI
Description: as §1, §2

[2] = target: T3, leukocyte-type 12-lipoxygenase (Mus musculus, UniProt P39654); set-up: method as in PMID 23579993; details: previous report; read-out: IC50, inhibition of leukocyte-type 12-lipoxygenase activity; cited from earlier work
T3 sequence (P39654 1-663): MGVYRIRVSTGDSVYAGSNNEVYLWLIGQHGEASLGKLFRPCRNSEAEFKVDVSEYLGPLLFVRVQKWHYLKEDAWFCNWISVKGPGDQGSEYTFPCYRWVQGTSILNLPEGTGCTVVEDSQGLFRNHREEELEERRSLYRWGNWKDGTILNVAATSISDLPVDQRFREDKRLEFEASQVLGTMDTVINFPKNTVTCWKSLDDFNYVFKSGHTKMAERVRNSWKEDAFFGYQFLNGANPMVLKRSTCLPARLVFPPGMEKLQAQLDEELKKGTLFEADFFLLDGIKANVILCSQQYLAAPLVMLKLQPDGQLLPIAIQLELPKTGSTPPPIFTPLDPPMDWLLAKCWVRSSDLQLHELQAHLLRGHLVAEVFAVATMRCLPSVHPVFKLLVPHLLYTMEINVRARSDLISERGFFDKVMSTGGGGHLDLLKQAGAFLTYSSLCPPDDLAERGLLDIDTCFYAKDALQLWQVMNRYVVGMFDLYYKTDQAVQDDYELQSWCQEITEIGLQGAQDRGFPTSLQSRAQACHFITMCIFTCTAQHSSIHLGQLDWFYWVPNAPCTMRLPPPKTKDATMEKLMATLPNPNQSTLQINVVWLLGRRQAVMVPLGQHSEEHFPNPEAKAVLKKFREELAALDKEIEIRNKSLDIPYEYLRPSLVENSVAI

15-lipoxygenase = target: T4, 15-lipoxygenase (Homo sapiens, UniProt P16050); assay: 15-lipoxygenase inhibition assay; assay type: biochemical; details: 25 μM arachidonic acid, 30 °C, 5 min
T4 sequence (P16050 1-662): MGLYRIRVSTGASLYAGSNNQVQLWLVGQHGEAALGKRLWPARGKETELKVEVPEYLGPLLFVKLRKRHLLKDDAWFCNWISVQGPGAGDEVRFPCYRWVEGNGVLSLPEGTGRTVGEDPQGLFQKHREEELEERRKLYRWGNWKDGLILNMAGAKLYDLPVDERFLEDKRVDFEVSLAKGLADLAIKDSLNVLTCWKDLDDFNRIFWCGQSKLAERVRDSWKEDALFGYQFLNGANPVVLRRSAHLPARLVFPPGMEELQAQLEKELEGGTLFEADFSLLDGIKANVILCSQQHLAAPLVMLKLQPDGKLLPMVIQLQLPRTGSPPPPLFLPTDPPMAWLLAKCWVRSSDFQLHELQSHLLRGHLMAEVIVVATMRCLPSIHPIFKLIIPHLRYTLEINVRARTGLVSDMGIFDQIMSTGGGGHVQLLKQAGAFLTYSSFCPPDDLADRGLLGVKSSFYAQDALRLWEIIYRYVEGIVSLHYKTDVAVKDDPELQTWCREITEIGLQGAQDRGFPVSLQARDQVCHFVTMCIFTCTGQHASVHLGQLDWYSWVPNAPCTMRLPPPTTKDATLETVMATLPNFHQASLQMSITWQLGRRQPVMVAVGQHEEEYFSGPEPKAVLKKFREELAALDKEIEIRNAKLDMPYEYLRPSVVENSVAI
Description: as §1, §2

cyclooxygenase-1 = cyclooxygenase-1 (Homo sapiens, UniProt P23219); assay: cyclooxygenase-1 inhibition assay; assay type: biochemical; details: 25 μM linoleic acid, 24 °C, 5 min
cyclooxygenase-1, sequence (P23219 24-599, species assumed): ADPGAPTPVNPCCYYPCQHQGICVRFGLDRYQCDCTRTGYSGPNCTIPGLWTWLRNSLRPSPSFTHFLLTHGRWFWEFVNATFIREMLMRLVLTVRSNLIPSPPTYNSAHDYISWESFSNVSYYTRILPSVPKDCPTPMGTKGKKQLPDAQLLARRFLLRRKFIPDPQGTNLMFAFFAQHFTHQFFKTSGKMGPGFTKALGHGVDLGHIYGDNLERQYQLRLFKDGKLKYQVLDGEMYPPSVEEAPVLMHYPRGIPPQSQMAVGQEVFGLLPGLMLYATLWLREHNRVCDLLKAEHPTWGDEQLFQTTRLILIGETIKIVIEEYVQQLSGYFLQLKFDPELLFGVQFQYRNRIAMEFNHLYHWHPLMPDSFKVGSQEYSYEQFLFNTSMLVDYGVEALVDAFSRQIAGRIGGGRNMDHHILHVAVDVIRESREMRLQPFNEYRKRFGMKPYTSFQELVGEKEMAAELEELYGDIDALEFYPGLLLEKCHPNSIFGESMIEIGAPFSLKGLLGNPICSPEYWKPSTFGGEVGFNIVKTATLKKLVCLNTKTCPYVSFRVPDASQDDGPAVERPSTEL
Description: as §1, §2

- IC50 (cyclooxygenase-2): 16.9 µM
- effect on platelet-type 12-lipoxygenase activity (in words) [1]: almost unaffected
- IC50 (15-lipoxygenase): 3.2 µM
- IC50 (cyclooxygenase-1): 21.5 µM
SMILES: C/C(=C\CO[C@@H]1O[C@H](CO)[C@@H](OC(=O)/C=C/c2ccc(O)cc2)[C@H](O[C@@H]2O[C@@H](C)[C@H](O)[C@@H](O)[C@H]2O)[C@H]1O)C/C=C/C(C)(C)OO [liguroside A]
- IC50 [2]: 1.7 µM
